# Experiments:
# [1] = system: patients with unstable angina/non Q-wave MI; test: Dose ranging study: secondary efficacy analysis (clinical endpoints); assay type: in vivo, human; settings: for AMI / Death (not related to bleeding) / Death or AMI / Death or AMI or recurrent ischemia (Symptomatic) / Recurrent Ischemia (Symptomatic): first active injection to Day 9, per protocol including insufficient Mortara data
# Protocol: (§1) A double blind, randomized, controlled dose ranging study was performed testing in parallel four fondaparinux sodium daily dose levels (2.5, 4.0, 8.0 and 12.0 mg) and a dose regimen of enoxaparin (1 mg/Kg bid=twice daily). Efficacy (composite parameter of death, AMI, recurrent ischemia) and safety of the respective doses of fondaparinux sodium were assessed in patients with unstable angina/non Q-wave MI. Further, safety and efficacy of the four different dose levels of fondaparinux sodium and enoxaparin 1 mg/Kg bid were compared.
# (§2) The primary analysis for efficacy parameters was performed on the per protocol (PP) population. The choice of the patients to be excluded from PP population for efficacy analyses was defined before unblinding the trial.
# [2] = system: patients with unstable angina/non Q-wave MI; test: Dose ranging study: safety analysis, adjudicated bleeding events; assay type: in vivo; settings: for Any bleeding event n (%) / Major bleeding event n (%) / Minor bleeding event n (%): first active injection to Day 9, all treated patients
# Protocol: as §1
# The primary safety endpoint was the incidence of major bleeding from first active drug administration up to and including Day 9 as adjudicated by a blinded Central Adjudication Committee (CAC). The incidence of any major or minor bleeding was considered as a secondary safety endpoint.
# (§3) The safety analysis was performed on the ‘all treated patients’ (ATP) population.
# [3] = system: patients with unstable angina/non Q-wave MI; test: Dose ranging study: safety analysis, deaths; assay type: in vivo, human; settings: for Patients with SAE from First injection Leading to death after day 30 / Patients with SAE from First injection Leading to death between first injection and day 30 / Total deaths reported: all treated patients; for Total deaths reported: first active injection onwards
# Protocol: as §1
# Other safety endpoints include deaths and all adverse events (latter not reported here).
# as §3
# [4] = system: patients with unstable angina/non Q-wave MI; test: Dose ranging study in unstable angina: primary efficacy evaluation (composite of death, AMI, recurrent ischemia); assay type: in vivo, human; settings: for AMI n (%) / Composite endpoint n (%) / Death (not related to bleeding) n (%) / Recurrent ischemia n (%) (Mortara data) / Symptomatic recurrent ischemia n (%): first active injection to Day 9, per protocol excluding insufficient Mortara data
# Protocol: as §1
# The primary efficacy endpoint consisted of the composite of the following ischeric events starting from first active drug administration up to and including Day 9 (with Day 1 being the day of first active drug administration):
# Death from any cause except for death related to bleeding
# Acute myocardial infarction (AMI), according to the definition in the protocol
# Symptomatic recurrent ischemia (excluding episodes of ischemia during or at any time after CABG (Coronary Artery Bypass Graft) or PTCA (Percutaneous Transluminal Coronary Angioplasty)) or any ischemia on the 48-h continuous 12-lead ECG monitoring (Mortara).
# In the event a patient experienced one of these events, the binary composite outcome was regarded as a treatment failure. In contrast, if none of the above events applied, the composite ischemic outcome was considered as a treatment success.
# as §2
compound,measurement,setting,value
"CO[C@H]1O[C@H](COS(=O)(=O)O)[C@@H](O[C@@H]2O[C@@H](C(=O)O)[C@@H](O[C@H]3O[C@H](COS(=O)(=O)O)[C@@H](O[C@@H]4O[C@H](C(=O)O)[C@@H](O[C@H]5O[C@H](COS(=O)(=O)O)[C@@H](O)[C@H](O)[C@H]5NS(=O)(=O)O)[C@H](O)[C@H]4O)[C@H](OS(=O)(=O)O)[C@H]3NS(=O)(=O)O)[C@H](O)[C@H]2OS(=O)(=O)O)[C@H](O)[C@H]1NS(=O)(=O)O [Fondaparinux sodium, methyl O-(2-deoxy-2-sulfoamino-6-O-sulfo-α-D-glucopyranosyl)-(1→4)-O-(β-D-glucopyranosyluronic acid)-(1→4)-O-(2-deoxy-2-sulfoamino-3,6-di-O-sulfo-α-D-glucopyranosyl)-(1→4)-O-(2-O-sulfo-α-L-idopyranosyluronic acid)-(1→4)-2-deoxy-2-sulfoamino-6-O-sulfo-α-D-glucopyranoside]",AMI,[1]; 2.5 mg daily (N = 210),1 (0.5%) n (%)
same,Death (not related to bleeding),[1]; 2.5 mg daily (N = 210),2 (1.0%) n (%)
same,Death or AMI,[1]; 2.5 mg daily (N = 210),3 (1.4%) n (%)
same,Death or AMI or recurrent ischemia (Symptomatic),[1]; 2.5 mg daily (N = 210),27 (12.9%) n (%)
same,Recurrent Ischemia (Symptomatic),[1]; 2.5 mg daily (N = 210),26 (12.4%) n (%)
same,death or AMI compared with the other fondaparinux sodium groups,[1]; 2.5 mg group,fewer patients tended to experience death or AMI
same,AMI,[1]; 4 mg daily (N = 185),3 (1.6%) n (%)
same,Death (not related to bleeding),[1]; 4 mg daily (N = 185),5 (2.7%) n (%)
same,Death or AMI,[1]; 4 mg daily (N = 185),8 (4.3%) n (%)
same,Death or AMI or recurrent ischemia (Symptomatic),[1]; 4 mg daily (N = 185),39 (21.1%) n (%)
same,Recurrent Ischemia (Symptomatic),[1]; 4 mg daily (N = 185),33 (17.8%) n (%)
same,AMI,[1]; 8 mg daily (N = 183),5 (2.7%) n (%)
same,Death (not related to bleeding),[1]; 8 mg daily (N = 183),1 (0.5%) n (%)
same,Death or AMI,[1]; 8 mg daily (N = 183),6 (3.3%) n (%)
same,Death or AMI or recurrent ischemia (Symptomatic),[1]; 8 mg daily (N = 183),33 (18.0%) n (%)
same,Recurrent Ischemia (Symptomatic),[1]; 8 mg daily (N = 183),29 (15.8%) n (%)
same,AMI,[1]; 12 mg daily (N = 199),4 (2.0%) n (%)
same,Death (not related to bleeding),[1]; 12 mg daily (N = 199),1 (0.5%) n (%)
same,Death or AMI,[1]; 12 mg daily (N = 199),5 (2.5%) n (%)
same,Death or AMI or recurrent ischemia (Symptomatic),[1]; 12 mg daily (N = 199),30 (15.1%) n (%)
same,Recurrent Ischemia (Symptomatic),[1]; 12 mg daily (N = 199),28 (14.1%) n (%)
same,Any bleeding event n (%),[2]; 2.5 mg daily (N = 229),9 (3.9%) n (%)
same,Major bleeding event n (%),[2]; 2.5 mg daily (N = 229),0 (0.0%) n (%)
same,Minor bleeding event n (%),[2]; 2.5 mg daily (N = 229),9 (3.9%) n (%)
same,major bleedings observed,[2]; 2.5 mg group,No major bleedings were observed
same,Any bleeding event n (%),[2]; 4 mg daily (N = 222),12 (5.4%) n (%)
same,Major bleeding event n (%),[2]; 4 mg daily (N = 222),3 (1.4%) n (%)
same,Minor bleeding event n (%),[2]; 4 mg daily (N = 222),9 (4.1%) n (%)
same,Any bleeding event n (%),[2]; 8 mg daily (N = 223),12 (5.4%) n (%)
same,Major bleeding event n (%),[2]; 8 mg daily (N = 223),4 (1.8%) n (%)
same,Minor bleeding event n (%),[2]; 8 mg daily (N = 223),9 (4.0%) n (%)
same,Any bleeding event n (%),[2]; 12 mg daily (N = 238),11 (4.6%) n (%)
same,Major bleeding event n (%),[2]; 12 mg daily (N = 238),1 (0.4%) n (%)
same,Minor bleeding event n (%),[2]; 12 mg daily (N = 238),10 (4.2%) n (%)
same,differences between fondaparinux sodium groups and the enoxaparin group for safety parameters,[2]; all dose groups,No significant differences
same,"differences between treatment groups for major, minor or any bleeding",[2]; all dose groups vs enoxaparin,No relevant differences
same,Patients with SAE from First injection Leading to death after day 30,[3]; 2.5 mg daily (N = 229),1 (0.4%) Number (%)
same,Patients with SAE from First injection Leading to death between first injection and day 30,[3]; 2.5 mg daily (N = 229),3 (1.3%) Number (%)
same,Total deaths reported,[3]; 2.5 mg daily (N = 229),4 (1.7%) Number (%)
same,Patients with SAE from First injection Leading to death after day 30,[3]; 4 mg daily (N = 222),3 (1.4%) Number (%)
same,Patients with SAE from First injection Leading to death between first injection and day 30,[3]; 4 mg daily (N = 222),7 (3.2%) Number (%)
same,Total deaths reported,[3]; 4 mg daily (N = 222),10 (4.5%) Number (%)
same,Patients with SAE from First injection Leading to death after day 30,[3]; 8 mg daily (N = 223),2 (0.9%) Number (%)
same,Patients with SAE from First injection Leading to death between first injection and day 30,[3]; 8 mg daily (N = 223),4 (1.8%) Number (%)
same,Total deaths reported,[3]; 8 mg daily (N = 223),6 (2.7%) Number (%)
same,Patients with SAE from First injection Leading to death after day 30,[3]; 12 mg daily (N = 238),1 (0.4%) Number (%)
same,Patients with SAE from First injection Leading to death between first injection and day 30,[3]; 12 mg daily (N = 238),6 (2.5%) Number (%)
same,Total deaths reported,[3]; 12 mg daily (N = 238),7 (2.9%) Number (%)
same,differences in the percentage of deaths between treatment groups,[3]; all dose groups vs enoxaparin,No relevant differences
same,AMI n (%),[4]; 2.5 mg daily (N = 203),1 (0.5%) n (%)
same,Composite endpoint n (%),[4]; 2.5 mg daily (N = 203),61 (30.0%) n (%)
same,Death (not related to bleeding) n (%),[4]; 2.5 mg daily (N = 203),2 (1.0%) n (%)
same,Recurrent ischemia n (%) (Mortara data),[4]; 2.5 mg daily (N = 203),47 (23.2%) n (%)
same,Symptomatic recurrent ischemia n (%),[4]; 2.5 mg daily (N = 203),26 (12.8%) n (%)
same,AMI n (%),[4]; 4 mg daily (N = 177),3 (1.7%) n (%)
same,Composite endpoint n (%),[4]; 4 mg daily (N = 177),77 (43.5%) n (%)
same,Death (not related to bleeding) n (%),[4]; 4 mg daily (N = 177),5 (2.8%) n (%)
same,Recurrent ischemia n (%) (Mortara data),[4]; 4 mg daily (N = 177),63 (35.6%) n (%)
same,Symptomatic recurrent ischemia n (%),[4]; 4 mg daily (N = 177),33 (18.6%) n (%)
same,AMI n (%),[4]; 8 mg daily (N = 173),5 (2.9%) n (%)
same,Composite endpoint n (%),[4]; 8 mg daily (N = 173),71 (41.0%) n (%)
same,Death (not related to bleeding) n (%),[4]; 8 mg daily (N = 173),1 (0.6%) n (%)
same,Recurrent ischemia n (%) (Mortara data),[4]; 8 mg daily (N = 173),55 (31.8%) n (%)
same,Symptomatic recurrent ischemia n (%),[4]; 8 mg daily (N = 173),29 (16.8%) n (%)
same,AMI n (%),[4]; 12 mg daily (N = 187),4 (2.1%) n (%)
same,Composite endpoint n (%),[4]; 12 mg daily (N = 187),65 (34.8 %) n (%)
same,Death (not related to bleeding) n (%),[4]; 12 mg daily (N = 187),1 (0.5%) n (%)
same,Recurrent ischemia n (%) (Mortara data),[4]; 12 mg daily (N = 187),56 (29.9%) n (%)
same,Symptomatic recurrent ischemia n (%),[4]; 12 mg daily (N = 187),28 (15.0%) n (%)
same,AMI n (%),[4]; All doses pooled (N = 740),13 (1.8%) n (%)
same,Composite endpoint n (%),[4]; All doses pooled (N = 740),274 (37.0%) n (%)
same,Death (not related to bleeding) n (%),[4]; All doses pooled (N = 740),9 (1.2%) n (%)
same,Recurrent ischemia n (%) (Mortara data),[4]; All doses pooled (N = 740),221 (29.9%) n (%)
same,Symptomatic recurrent ischemia n (%),[4]; All doses pooled (N = 740),116 (15.7%) n (%)
same,efficacy compared with enoxaparin 1 mg/Kg bid,[4]; all fondaparinux sodium doses,at least as effective as enoxaparin
same,incidence of the composite endpoint,[4]; all fondaparinux sodium groups pooled,37.0%
same,dose-response for the primary endpoint,"[4]; four fondaparinux sodium groups (2.5, 4.0, 8.0, 12.0 mg)",No dose-response

# Source: patent US20040248848A1, “Use of specific dose of fondaparinux sodium for the treatment of acs” (priority 2004, published 2004)
